The values that follow come from patent US20150225404A1, “PYRIDINE DERIVATIVE AND MEDICINE” (NIPPON SHINYAKU CO., LTD., priority 2012, published 2015).

The structures appear in SMILES notation. Counter-ions that a name gives are not always drawn.

One assay deals with T1, human mGluR5 (Homo sapiens, UniProt P41594).
T1 construct: expressed in transfected cells
T1 sequence (P41594 21-1212): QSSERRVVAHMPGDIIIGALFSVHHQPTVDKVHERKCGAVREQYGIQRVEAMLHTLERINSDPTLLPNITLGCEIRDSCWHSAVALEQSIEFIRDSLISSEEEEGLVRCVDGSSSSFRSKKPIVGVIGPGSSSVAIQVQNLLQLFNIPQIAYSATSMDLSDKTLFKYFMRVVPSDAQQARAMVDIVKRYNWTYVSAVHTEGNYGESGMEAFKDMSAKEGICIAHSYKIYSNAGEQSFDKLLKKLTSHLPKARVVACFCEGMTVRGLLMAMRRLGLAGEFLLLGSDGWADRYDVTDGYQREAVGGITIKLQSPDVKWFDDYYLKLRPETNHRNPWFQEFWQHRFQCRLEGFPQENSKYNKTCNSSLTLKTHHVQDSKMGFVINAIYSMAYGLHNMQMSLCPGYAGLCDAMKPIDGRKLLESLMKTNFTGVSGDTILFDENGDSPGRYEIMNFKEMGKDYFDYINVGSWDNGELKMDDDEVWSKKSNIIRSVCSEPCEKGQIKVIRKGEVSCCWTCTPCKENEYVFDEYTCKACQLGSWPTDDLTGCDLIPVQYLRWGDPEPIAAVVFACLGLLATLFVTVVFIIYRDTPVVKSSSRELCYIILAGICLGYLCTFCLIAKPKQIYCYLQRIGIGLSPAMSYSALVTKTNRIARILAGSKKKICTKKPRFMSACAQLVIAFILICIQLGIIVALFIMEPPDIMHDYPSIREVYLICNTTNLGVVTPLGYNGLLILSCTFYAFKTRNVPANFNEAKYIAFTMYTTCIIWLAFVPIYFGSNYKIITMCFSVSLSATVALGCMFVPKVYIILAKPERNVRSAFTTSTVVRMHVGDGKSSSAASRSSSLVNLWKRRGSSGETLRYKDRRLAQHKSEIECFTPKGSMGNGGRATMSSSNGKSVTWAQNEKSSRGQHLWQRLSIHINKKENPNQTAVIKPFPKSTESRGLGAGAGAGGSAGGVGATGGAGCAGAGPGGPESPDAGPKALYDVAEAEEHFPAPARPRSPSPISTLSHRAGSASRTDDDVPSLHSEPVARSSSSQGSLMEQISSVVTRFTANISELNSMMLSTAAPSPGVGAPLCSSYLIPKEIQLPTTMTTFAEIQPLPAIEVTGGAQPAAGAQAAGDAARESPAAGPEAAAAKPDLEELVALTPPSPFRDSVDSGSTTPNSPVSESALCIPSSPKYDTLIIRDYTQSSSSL
The experiment in a line: Experiment for receptor function of mGluR5 (Ca2+-dependent fluorescence, FLIPR, CHO-K1 cells stably expressing human mGluR5). Type of assay: cell-based. To be noted: L-glutamic acid 10 μM, Fluo-4 fluorescence. In outline: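 Fluo-4-loaded CHO-K1 cells pre-incubated 2 min with test substance, then stimulated with L-glutamic acid (final 10 μM) in HBSS, pH 7.4. FLIPR Ca2+ fluorescence normalized to glutamate alone (100%) and glutamate with 10 μM MPEP (0%); IC50 estimated by logistic fit.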
As usually defined, the IC50 is the concentration at which inhibition is half-maximal. Compound `N#Cc1ccc(COc2cc(-c3ccnc(F)c3)c3c(n2)CCC3)nc1` [Example 252, 6-({[4-(2-Fluoropyridin-4-yl)-6,7-dihydro-5H-cyclopenta[b]pyridin-2-yl]oxy}methyl)pyridine-3-carbonitrile] showed an IC50 of 13.5 nM.
The same measure, in the same setting: for `N#Cc1cccc(COc2cc(-c3cncc(CO)c3)c3c(n2)CCC3)c1` [Example 253, 3-[({4-[5-(Hydroxymethyl)pyridin-3-yl]-6,7-dihydro-5H-cyclopenta[b]pyridin-2-yl}oxy)methyl]benzonitrile] the value was 80 nM.
For `Cc1cc(COc2cc(-c3cncnc3)c3c(n2)CCC3)ccn1` [Example 256, 2-[(2-Methylpyridin-4-yl)methoxy]-4-(pyrimidin-5-yl)-6,7-dihydro-5H-cyclopenta[b]pyridine], the midpoint of inhibition, the IC50, lay at 62.8 nM.
The same measure, in the same setting: for `N#Cc1ccc(COc2cc(-c3cncnc3)c3c(n2)CCC3)cc1` [Example 258, 4-({[4-(Pyrimidin-5-yl)-6,7-dihydro-5H-cyclopenta[b]pyridin-2-yl]oxy}methyl)benzonitrile] the value was 10.1 nM; for `Nc1ncc(-c2cc(OCc3ccccn3)nc3c2CCC3)cn1` [Example 259, 5-[2-(Pyridin-2-ylmethoxy)-6,7-dihydro-5H-cyclopenta[b]pyridin-4-yl]pyrimidin-2-amine hydrochloride], 27.3 nM.
For `Cc1ncc(-c2cc(OCc3ccc(C#N)cc3)nc3c2CCC3)cn1` [Example 261, 4-({[4-(2-Methylpyrimidin-5-yl)-6,7-dihydro-5H-cyclopenta[b]pyridin-2-yl]oxy}methyl)benzonitrile], the IC50 is 64 nM.
Turning to `Cc1cc(COc2cc(-c3cnc(C)nc3)c3c(n2)CCC3)ccn1` [Example 262, 2-[(2-Methylpyridin-4-yl)methoxy]-4-(2-methylpyrimidin-5-yl)-6,7-dihydro-5H-cyclopenta[b]pyridine], the IC50 came to 82 nM.
On the same count and under the same terms, for `Nc1ncc(-c2cc(OCc3cccc(F)c3)nc3c2CCC3)cn1` [Example 263, 5-{2-[(3-Fluorobenzyl)oxy]-6,7-dihydro-5H-cyclopenta[b]pyridin-4-yl}pyrimidin-2-amine] the value was 111 nM.
Consider `N#Cc1ccc(COc2cc(-c3cnc(N)nc3)c3c(n2)CCC3)cc1` [Example 264, 4-({[4-(2-Aminopyrimidin-5-yl)-6,7-dihydro-5H-cyclopenta[b]pyridin-2-yl]oxy}methyl)benzonitrile], for which the IC50 amounted to 126 nM.
The same measure, in the same setting: the value for `N#Cc1cccc(COc2cc(-c3cnc(N)nc3)c3c(n2)CCC3)c1` [Example 265, 3-({[4-(2-Aminopyrimidin-5-yl)-6,7-dihydro-5H-cyclopenta[b]pyridin-2-yl]oxy}methyl)benzonitrile] was 46.8 nM; that for `Cc1ncc(-c2cc(OCc3cccc(F)c3)nc3c2CCC3)cn1` [Example 266, 2-[(3-Fluorobenzyl)oxy]-4-(2-methylpyrimidin-5-yl)-6,7-dihydro-5H-cyclopenta[b]pyridine] was 71 nM.
Turning to `Cc1ncc(-c2cc(OCc3nc(C#N)co3)nc3c2CCC3)cn1` [Example 267, 2-({[4-(2-Methylpyrimidin-5-yl)-6,7-dihydro-5H-cyclopenta[b]pyridin-2-yl]oxy}methyl)-1,3-oxazole-4-carbonitrile], the IC50 was 55 nM.
The same measure, in the same setting: for `OCc1cncc(-c2cc(OCc3ccc(F)cn3)nc3c2CCC3)n1` [Example 269, (6-{2-[(5-Fluoropyridin-2-yl)methoxy]-6,7-dihydro-5H-cyclopenta[b]pyridin-4-yl}pyrazin-2-yl)methanol] the value was 67 nM; for `N#Cc1cccc(COc2cc(-c3cncc(CO)n3)c3c(n2)CCC3)c1` [Example 270, 3-[({4-[6-(Hydroxymethyl)pyrazin-2-yl]-6,7-dihydro-5H-cyclopenta[b]pyridin-2-yl}oxy)methyl]benzonitrile], 186 nM.
`c1ccc(COc2cc(-c3cccnn3)c3c(n2)CCC3)nc1` [Example 271, 4-(Pyridazin-3-yl)-2-(pyridin-2-ylmethoxy)-6,7-dihydro-5H-cyclopenta[b]pyridine] registered an IC50 of 92 nM.
Still for that read-out and setting: the value for `N#Cc1ccc(COc2cc(-c3cccnn3)c3c(n2)CCC3)cc1` [Example 273, 4-({[4-(Pyridazin-3-yl)-6,7-dihydro-5H-cyclopenta[b]pyridin-2-yl]oxy}methyl)benzonitrile] was 62 nM; that for `Cn1nccc1-c1cc(OCc2ccc(C#N)cn2)nc2c1CCC2` [Example 274, 6-({[4-(1-Methyl-1H-pyrazol-5-yl)-6,7-dihydro-5H-cyclopenta[b]pyridin-2-yl]oxy}methyl)pyridine-3-carbo nitrile] was 61 nM.
Still for that read-out and setting: for `N#Cc1ccc(COc2cc(-c3cccnn3)c3c(n2)CCC3)nc1` [Example 275, 6-({[4-(Pyridazin-3-yl)-6,7-dihydro-5H-cyclopenta[b]pyridin-2-yl]oxy}methyl)pyridine-3-carbonitrile] the value was 82 nM; for `N#Cc1ccc(COc2cc(-c3cncc(CO)c3)c3c(n2)CCCC3)nc1` [Example 276, 6-[({4-[5-(Hydroxymethyl)pyridin-3-yl]-5,6,7,8-tetrahydroquinolin-2-yl}oxy)methyl]pyridine-3-carbonitrile], 28 nM.
The same measure, in the same setting: for `N#Cc1ccc(COc2cc(-c3cncnc3)c3c(n2)CCCC3)cc1` [Example 278, 4-({[4-(Pyrimidin-5-yl)-5,6,7,8-tetrahydroquinolin-2-yl]oxy}methyl)benzonitrile] the value was 87 nM; for `N#Cc1cccc(COc2cc(-c3cncnc3)c3c(n2)CCCC3)c1` [Example 279, 3-({[4-(Pyrimidin-5-yl)-5,6,7,8-tetrahydroquinolin-2-yl]oxy}methyl)benzonitrile], 108 nM.
The compound `Fc1ccc(COc2cc(-c3cncnc3)c3c(n2)CCCC3)cc1` [Example 280, 2-[(4-Fluorobenzyl)oxy]-4-(pyrimidin-5-yl)-5,6,7,8-tetrahydroquinoline] yielded an IC50 of 92 nM.
Compound `Fc1cccc(COc2cc(-c3cncnc3)c3c(n2)CCCC3)c1` [Example 281, 2-[(3-Fluorobenzyl)oxy]-4-(pyrimidin-5-yl)-5,6,7,8-tetrahydroquinoline] came in with an IC50 of 94 nM.
`N#Cc1cc(COc2cc(-c3cncnc3)c3c(n2)CCCC3)ccn1` [Example 282, 4-({[4-(Pyrimidin-5-yl)-5,6,7,8-tetrahydroquinolin-2-yl]oxy}methyl)pyridine-2-carbonitrile]: the IC50 was 66 nM.
As to `Cc1cc(COc2cc(-c3cnc(C)nc3)c3c(n2)CCCC3)ccn1` [Example 286, 2-[(2-Methylpyridin-4-yl)methoxy]-4-(2-methylpyrimidin-5-yl)-5,6,7,8-tetrahydroquinoline], the IC50 turned out to be 95 nM.
Turning to `Cc1ncc(-c2cc(OCc3ccnc(C#N)c3)nc3c2CCCC3)cn1` [Example 287, 4-({[4-(2-Methylpyrimidin-5-yl)-5,6,7,8-tetrahydroquinolin-2-yl]oxy}methyl)pyridine-2-carbonitrile], the IC50 was found to be 146 nM.
Same read-out and setting: the value for `N#Cc1ccc(COc2cc(-c3cncc(CO)n3)c3c(n2)CCCC3)nc1` [Example 288, 6-[({4-[6-(Hydroxymethyl)pyrazin-2-yl]-5,6,7,8-tetrahydroquinolin-2-yl}oxy)methyl]pyridine-3-carbonitrile] was 119 nM.

In another assay the test system is male Slc:ICR mice. Nature of the assay: Action against pain-related behavior and micturition cycle in mice with cyclophosphamide (CP)-induced acute cystitis. Type of assay: in vivo. The following applies: Mus musculus, iv, 0.25 h; CP 300 mg/kg i.p.; test substance 3 mg/kg intravenously 3 hours after CP; 15 minutes observation; read-out: Percent inhibition of pain-related behavior score (%). How it is done: An action of a test substance against visceral pain and frequent urination associated with cystitis, which was induced by intraperitoneal administration (20 mL/kg) of CP (300 mg/kg) to 4 to 5-week-old male Slc:ICR mice (available from Japan SLC, Inc.), was investigated. This experiment was performed according to a method described in European Journal of Pharmacology, 676 (2012), pp. 75-80.
Three hours after the administration of CP, a test substance (1 mg/kg or 3 mg/kg) was intravenously administered, and observation by visual inspection and video recording were performed for 15 minutes immediately thereafter. In the observation by visual inspection, four pain-related behaviors (eye opening, rounded back, leg dragging, and behavior during urination) were scored, each rated on a scale of 0-10, according to the following criteria.
Eye opening (normal: 0 point, sometimes closed or half-open eyes: 5 points, completely closed: 10 points)
Rounded back (normal: 0 point, sometimes crouched: 5 points, crouched at almost all times: 10 points)
Leg dragging (normal: 0 point, leg dragging: 10 points)
Behavior during urination (normal: 0 point, shaking hip in micturition: 10 points)
In addition, the video was played back, and the frequency of licking behavior around the abdomen as a pain-related behavior was scored, rated on a scale of 0-10, according to the following criteria.
Licking behavior around the abdomen (0 to 3 times: 0 point, 4 times to 10 times: 5 points, 11 times or more: 10 points)
Furthermore, the video was played back, and the frequency of urination (urination marks) on a filter paper was counted and taken as an index for micturition cycle.
An average value of the pain-related behavior score of each group (total score of the five items: 50 points at maximum) and an average value of the frequency of urination (urination marks) on the filter paper were determined.
The strength of an analgesic action of the test substance against the CP-induced visceral pain was evaluated in terms of percent inhibition (%) of pain-related behavior score which is calculated as {(A−B)/A×100}, wherein A is an average value of the pain-related behavior score of a medium-administered group, and B is an average value of the pain-related behavior score of a test substance-administered group.
In addition, the strength of a frequent urination inhibitory action of the test substance against the CP-induced frequent urination was evaluated in terms of percent inhibition (%) of the frequency of urination which is calculated as {(C−D)/C×100}, wherein C is an average value of the frequency of urination of a medium-administered group, and D is an average value of the frequency of urination of a test substance-administered group.
In the case of `Cc1ncc(-c2cc(OCc3nc(F)ccc3F)nc3c2CCC3)cn1` [Example 43, 2-[(3,6-Difluoropyridin-2-yl)methoxy]-4-(2-methylpyrimidin-5-yl)-6,7-dihydro-5H-cyclopenta[b]pyridine], the inhibition in vivo at 3 mg/kg is 31%.
In the case of `Cc1cccc(COc2cc(-c3cnc(C)nc3)c3c(n2)CCC3)n1` [Example 45, 2-[(6-Methylpyridin-2-yl)methoxy]-4-(2-methylpyrimidin-5-yl)-6,7-dihydro-5H-cyclopenta[b]pyridine hydrochloride], the inhibition in vivo at 3 mg/kg came to 34.1%.

The same assay, now with this note: Mus musculus, iv, 0.25 h; CP 300 mg/kg i.p.; test substance 3 mg/kg intravenously 3 hours after CP; 15 minutes observation; read-out: Percent inhibition of the frequency of urination (%).
For `Cc1ncc(-c2cc(OCc3nc(F)ccc3F)nc3c2CCC3)cn1` [Example 43, 2-[(3,6-Difluoropyridin-2-yl)methoxy]-4-(2-methylpyrimidin-5-yl)-6,7-dihydro-5H-cyclopenta[b]pyridine], the inhibition in vivo at 3 mg/kg came to 41.9%.
On the same count and under the same terms, the value for `Cc1cccc(COc2cc(-c3cnc(C)nc3)c3c(n2)CCC3)n1` [Example 45, 2-[(6-Methylpyridin-2-yl)methoxy]-4-(2-methylpyrimidin-5-yl)-6,7-dihydro-5H-cyclopenta[b]pyridine hydrochloride] was 33.8%.
